Like-named read-outs stand apart in the source and are kept apart here.
Key:
KG1 cells = assay: Static adhesion of KG1 cells to E-selectin coated plates; assay type: cell-based, human; details: added post-binding of 5-azacytidine treated KG1 cells
Excerpt: These findings indicate that hypomethylating agents, including 5-azacytidine, may increase the adhesion of leukemic blasts in the bone marrow and therefore hinder the intended anti-leukemic effect. This could explain a source of chemoresistance, and potential for relapse, in patients treated with hypomethylating agents.

[1] = Pharmacokinetics of weight-based doses in AML subjects; assay type: in vivo, human; details: for AUC, Mean / AUC, Median: dose 13 to dose 15; for Cmax: human, plasma, intravenous
Method: Three cohorts of 6-7 human subjects with acute myeloid leukemia (AML) each received a total of 15 infusions of 5, 10, or 20 mg/kg/dose over 8 days with a nominal infusion duration of 20 minutes. The first dose of a compound of Formula (I), was administered 24 hours±1 hour prior to the first dose of MEC (mitoxantrone, etoposide, and cytarabine) induction chemotherapy as a sentinel dose to evaluate the effect of the compound of Formula (I) alone, and then every 12 hours±1 hour on chemotherapy days, starting 2 hours prior to chemotherapy. […] MEC chemotherapy was administered on Days 2-6. Samples were obtained pre-dose, on Day 1, Day 3, Day 8, Day 9, and Day 10 (where Day 1 refers to the first day of dosing with a compound of Formula (I)).

SMILES: CC[C@@H]1CC(C(=O)NCCNC(=O)CCOCCOCCOCCOCCOCCOCCOCCOCCOCCOCCOCCOC)C[C@@H](O[C@@H]2O[C@@H](CO)[C@H](O)C(O[C@@H](CC3CCCCC3)C(=O)O)C2NC(C)=O)C1OC1O[C@@H](C)C(O)[C@H](O)[C@@H]1O (stereo partly shown) [compound of Formula (I)]
- uncoupling of adhesion (KG1 cells): ~90%
- AUC, Mean ([1]; 5 mg/kg/dose): 5.21 µg·days/mL
- AUC, Median ([1]; 5 mg/kg/dose): 4.83 µg·days/mL
- AUC, Mean ([1]; 10 mg/kg/dose): 9.63 µg·days/mL
- AUC, Median ([1]; 10 mg/kg/dose): 9.63 µg·days/mL
- AUC, Mean ([1]; 20 mg/kg/dose): 20.43 µg·days/mL
- AUC, Median ([1]; 20 mg/kg/dose): 19.33 µg·days/mL
- Cmax ([1]; 5 mg/kg, 5 mg/kg/dose, read-out: Cmax, Mean): 38.5 µg/mL
- Cmax ([1]; 5 mg/kg, 5 mg/kg/dose, read-out: Cmax, Median): 36.3 µg/mL
- Cmax ([1]; 10 mg/kg, 10 mg/kg/dose, read-out: Cmax, Mean): 79.6 µg/mL
- Cmax ([1]; 10 mg/kg, 10 mg/kg/dose, read-out: Cmax, Median): 76.2 µg/mL
- Cmax ([1]; 20 mg/kg, 20 mg/kg/dose, read-out: Cmax, Mean): 167 µg/mL
- Cmax ([1]; 20 mg/kg, 20 mg/kg/dose, read-out: Cmax, Median): 153 µg/mL

— patent publication US11707474B2, “Methods for treating acute myeloid leukemia and related conditions” (GlycoMimetics, Inc., priority 2018, dated 2023)
